Source: the supplement of paper PMC10307832

How the values were obtained:
Test in all cases: relative viability (nuclei count vs DMSO), 5 days (fraction); higher = more cells survive
Vandetanib + Pictilisib = compound: COc1cc2/c(=N/c3ccc(Br)cc3F)nc[nH]c2cc1OCC1CCN(C)CC1 [Vandetanib] + CS(=O)(=O)N1CCN(Cc2cc3nc(-c4cccc5[nH]ncc45)nc(N4CCOCC4)c3s2)CC1 [Pictilisib] (partner 1 µM)
Outline: (§1)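 For relative viability, nuclei counts in treated wells were divided by those in vehicle wells. Lung cancer cell lines had been pin-tool dosed in 1536-well plates the day after seeding and cultured for 5 days, then fixed and stained in one step (final 0.05% Triton X-100, 1% formaldehyde, 1 ug/ml Hoechst) and imaged at 4×. Doses were one drug alone or a fixed anchor-drug dose plus five library-drug doses (not always all listed) in √10 steps, and values are duplicate-plate medians.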

CUDC-101 + Decitabine = compound: C#Cc1cccc(Nc2ncnc3cc(OC)c(OCCCCCCC(=O)NO)cc23)c1 [CUDC-101] + Nc1ncn([C@H]2C[C@H](O)[C@@H](CO)O2)c(=O)n1 [Decitabine] (partner 2 µM)
Outline: as §1

Vandetanib + AZD7762 = compound: COc1cc2/c(=N/c3ccc(Br)cc3F)nc[nH]c2cc1OCC1CCN(C)CC1 [Vandetanib] + NC(=O)Nc1cc(-c2cccc(F)c2)sc1C(=O)N[C@H]1CCCNC1 [AZD7762] (partner 0.2 µM)
Outline: as §1

Vandetanib + Decitabine = compound: COc1cc2/c(=N/c3ccc(Br)cc3F)nc[nH]c2cc1OCC1CCN(C)CC1 [Vandetanib] + Nc1ncn([C@H]2C[C@H](O)[C@@H](CO)O2)c(=O)n1 [Decitabine] (partner 2 µM)
Outline: as §1

Cell Line	relative viability (Vandetanib + Pictilisib; first compound 0.02 µM)	relative viability (Vandetanib + Pictilisib; first compound 0.06325 µM)	relative viability (Vandetanib + Pictilisib; first compound 0.2 µM)	relative viability (Vandetanib + Pictilisib; first compound 0.6325 µM)	relative viability (Vandetanib + Pictilisib; first compound 2 µM)	relative viability (CUDC-101 + Decitabine; first compound 0.01 µM)	relative viability (CUDC-101 + Decitabine; first compound 0.03162 µM)	relative viability (CUDC-101 + Decitabine; first compound 0.1 µM)	relative viability (CUDC-101 + Decitabine; first compound 0.3162 µM)	relative viability (CUDC-101 + Decitabine; first compound 1 µM)	relative viability (Vandetanib + AZD7762; first compound 0.02 µM)	relative viability (Vandetanib + AZD7762; first compound 0.06325 µM)	relative viability (Vandetanib + AZD7762; first compound 0.2 µM)	relative viability (Vandetanib + AZD7762; first compound 0.6325 µM)	relative viability (Vandetanib + AZD7762; first compound 2 µM)	relative viability (Vandetanib + Decitabine; first compound 0.02 µM)	relative viability (Vandetanib + Decitabine; first compound 0.06325 µM)	relative viability (Vandetanib + Decitabine; first compound 0.2 µM)	relative viability (Vandetanib + Decitabine; first compound 0.6325 µM)	relative viability (Vandetanib + Decitabine; first compound 2 µM)
NCI-H2087	1	0.694	0.922	0.935	0.964	0.245	0.313	0.256	0.251	0.237	1.38	1.23	1.54	1.4	1.49	0.364	0.379	0.281	0.286	0.233
NCI-H3122	0.668	0.603	0.58	0.61	0.601	0.402	0.4	0.51	0.461	0.485	0.917	1	1.01	0.926	1.01	0.454	0.39	0.178	0.456	0.481
ChaGo-K-1	0.632	0.713	0.619	0.87	0.28	0.558	0.47	0.555	0.505	0.492	0.878	0.886	0.893	0.816	0.896	0.518	0.519	0.287	0.496	0.523
NCI-H2347	0.849	0.601	0.571	0.462	0.788	0.636	0.585	0.672	0.591	0.576	0.764	0.657	0.788	0.778	0.689	0.595	0.525	0.685	0.619	0.568
NCI-H460	0.351	0.359	0.349	0.371	0.331	0.522	0.459	0.423	0.533	0.433	0.497	0.624	0.57	0.466	0.581	0.459	0.446	0.338	0.532	0.49
HCC-827	0.816	1.02	0.864	0.664	0.355	0.309	0.248	0.177	0.149	0.155	0.211	0.204	0.165	0.126	0.124	0.361	0.302	0.335	0.191	0.152
HOP-62	0.608	0.504	0.669	0.495	0.734	0.288	0.238	0.224	0.22	0.229	0.661	0.536	0.577	0.412	0.485	0.244	0.267	0.208	0.202	0.249
NCI-H1792	0.273	0.288	0.303	0.318	0.235	0.561	0.437	0.602	0.553	0.424	0.654	0.656	0.607	0.5	0.673	0.487	0.469	0.698	0.53	0.444
HCC-15	0.795	0.678	0.696	0.767	0.796	0.579	0.628	0.655	0.621	0.443	1.29	1.04	1.18	1.33	1.15	0.662	0.516	0.562	0.616	0.616
NCI-H1755	0.427	0.381	0.254	0.426	0.369	0.695	0.748	0.83	0.755	0.64	0.455	0.436	0.42	0.437	0.503	0.71	0.678	0.709	0.763	0.623
NCI-H23	0.423	0.427	0.509	0.424	0.506	0.317	0.321	0.346	0.307	0.543	0.193	0.251	0.199	0.234	0.31	0.358	0.328	0.346	0.293	0.325
BEN	0.576	0.49	0.585	0.646	0.538	0.724	0.656	0.709	0.649	0.498	0.69	0.622	0.585	0.633	0.661	0.651	0.7	0.625	0.725	0.446
NCI-H1651	0.621	0.519	0.478	0.528	0.374	0.671	0.645	0.643	0.594	0.515	0.431	0.425	0.462	0.442	0.486	0.609	0.583	0.572	0.628	0.45
NCI-H2126	0.461	0.46	0.468	0.418	0.481	0.564	0.572	0.597	0.567	0.519	1.03	0.938	1.01	0.971	1	0.537	0.551	0.592	0.576	0.552
EKVX	0.404	0.396	0.404	0.363	0.213	0.322	0.446	0.33	0.323	0.299	0.693	0.692	0.611	0.694	0.547	0.378	0.322	0.345	0.279	0.212
NCI-H727	0.33	0.272	0.341	0.325	0.309	1.19	0.906	0.944	0.989	0.695	0.482	0.489	0.651	0.562	0.635	0.827	0.798	0.938	0.885	0.492

Cell Line	relative viability (Vandetanib + Pictilisib; first compound 0.02 µM)	relative viability (Vandetanib + Pictilisib; first compound 0.06325 µM)	relative viability (Vandetanib + Pictilisib; first compound 0.2 µM)	relative viability (Vandetanib + Pictilisib; first compound 0.6325 µM)	relative viability (Vandetanib + Pictilisib; first compound 2 µM)	relative viability (CUDC-101 + Decitabine; first compound 0.01 µM)	relative viability (CUDC-101 + Decitabine; first compound 0.03162 µM)	relative viability (CUDC-101 + Decitabine; first compound 0.1 µM)	relative viability (CUDC-101 + Decitabine; first compound 0.3162 µM)	relative viability (CUDC-101 + Decitabine; first compound 1 µM)	relative viability (Vandetanib + AZD7762; first compound 0.02 µM)	relative viability (Vandetanib + AZD7762; first compound 0.06325 µM)	relative viability (Vandetanib + AZD7762; first compound 0.2 µM)	relative viability (Vandetanib + AZD7762; first compound 0.6325 µM)	relative viability (Vandetanib + AZD7762; first compound 2 µM)	relative viability (Vandetanib + Decitabine; first compound 0.02 µM)	relative viability (Vandetanib + Decitabine; first compound 0.06325 µM)	relative viability (Vandetanib + Decitabine; first compound 0.2 µM)	relative viability (Vandetanib + Decitabine; first compound 0.6325 µM)	relative viability (Vandetanib + Decitabine; first compound 2 µM)
NCI-H838	0.461	0.357	0.457	0.426	0.415	0.45	0.516	0.49	0.484	0.369	0.902	0.895	0.976	1.03	0.894	0.489	0.399	0.503	0.457	0.451
NCI-H1944	0.328	0.345	0.339	0.345	0.334	0.409	0.434	0.431	0.428	0.363	0.489	0.611	0.555	0.462	0.471	0.411	0.489	0.551	0.463	0.447
LC-2-ad	0.503	0.4	0.167	0.324	0.19	0.872	0.774	0.829	0.717	0.621	0.807	0.809	0.766	0.756	0.69	0.707	0.729	0.89	0.836	0.616
LOU-NH91	0.528	0.565	0.508	0.524	0.515	0.804	0.706	0.76	0.807	0.711	0.759	0.765	0.678	0.718	0.755	0.816	0.734	0.681	0.679	0.66
NCI-H647	0.457	0.419	0.349	0.412	0.161	0.267	0.326	0.308	0.335	0.24	0.404	0.481	0.395	0.404	0.446	0.356	0.396	0.349	0.35	0.41
NCI-H1666	0.343	0.446	0.498	0.451	0.322	0.769	0.734	0.693	0.752	0.61	0.83	0.772	0.734	0.814	0.722	0.74	0.675	0.731	0.757	0.553
A-427	0.676	0.626	0.762	0.674	0.777	0.617	0.619	0.591	0.568	0.554	0.684	0.674	0.719	0.62	0.61	0.58	0.59	0.541	0.517	0.574
NCI-H2170	0.328	0.288	0.267	0.28	0.31	0.416	0.514	0.485	0.444	0.391	0.822	0.8	0.893	0.781	0.835	0.44	0.478	0.472	0.458	0.455
NCI-H1395	0.687	0.61	0.656	0.697	0.418	0.794	0.756	0.773	0.709	0.66	0.404	0.399	0.427	0.418	0.434	0.737	0.704	0.655	0.788	0.74
NCI-H650	0.809	0.849	0.884	0.908	0.811	0.359	0.366	0.323	0.286	0.264	1.01	1.02	0.976	0.941	0.905	0.354	0.324	0.322	0.351	0.329
NCI-H1437	0.463	0.419	0.432	0.357	0.481	0.556	0.537	0.553	0.533	0.498	1.16	1.12	1.1	1.2	1.09	0.534	0.559	0.556	0.551	0.545
HCC-366	0.146	0.141	0.202	0.112	0.112	0.335	0.33	0.339	0.383	0.354	0.205	0.317	0.284	0.243	0.286	0.291	0.355	0.354	0.332	0.347
HCC-78	0.192	0.294	0.234	0.231	0.189	0.738	0.591	0.719	0.624	0.433	0.591	0.669	0.596	0.645	0.609	0.715	0.632	0.683	0.689	0.643
HCC-44	0.58	0.543	0.556	0.613	0.634	0.908	1.03	0.912	0.906	0.913	0.982	1.04	1.11	1.03	1.04	0.999	0.992	0.949	0.897	0.973
NCI-H1355	0.438	0.367	0.425	0.496	0.482	0.359	0.313	0.358	0.355	0.313	0.741	0.742	0.755	0.66	0.653	0.351	0.357	0.369	0.339	0.363
NCI-H1993	0.832	0.727	0.64	0.85	0.723	0.62	0.548	0.602	0.586	0.488	0.737	0.74	0.861	0.78	0.555	0.674	0.645	0.628	0.637	0.541
